# Test results reported in ChEMBL document CHEMBL3734705, “Synthesis and in vitro cytotoxicity of novel C-12 substituted-14-deoxy-andrographolide derivatives as potent anti-cancer agents” (2015).
# Key:
# [1] = Cytotoxicity against human HL-60(TB) cells assessed as growth inhibition at 10 uM after 48 hrs by SRB assay; format: functional; conditions: HL-60, 48 h, read-out: GI
# [2] = Cytotoxicity against human HOP92 cells assessed as growth inhibition at 10 uM after 48 hrs by SRB assay; format: functional; conditions: HOP-92, 48 h, read-out: GI
# [3] = Cytotoxicity against human HCT116 cells assessed as growth level at 10 uM after 48 hrs by SRB assay; format: functional, HCT-116
# [4] = Cytotoxicity against human UACC62 cells assessed as growth level at 10 uM after 48 hrs by SRB assay; format: functional, UACC-62
# SR = experiment: Cytotoxicity against human SR cells assessed as growth inhibition at 10 uM after 48 hrs by SRB assay; format: functional; conditions: read-out: GI
# [5] = Cytotoxicity against human SW620 cells assessed as growth inhibition at 10 uM after 48 hrs by SRB assay; format: functional; conditions: SW-620, 48 h, read-out: GI
# [6] = Cytotoxicity against human OVCAR4 cells assessed as growth level at 10 uM after 48 hrs by SRB assay; format: functional, OVCAR-4
# [7] = Cytotoxicity against human OVCAR8 cells assessed as growth inhibition at 10 uM after 48 hrs by SRB assay; format: functional; conditions: OVCAR-8, 48 h, read-out: GI
# HT-29 = experiment: Cytotoxicity against human HT-29 cells assessed as growth level at 10 uM after 48 hrs by SRB assay; format: functional
# [8] = Cytotoxicity against human Hs578T cells assessed as growth level at 10 uM after 48 hrs by SRB assay; format: functional, Hs-578T
# MCF7 = experiment: Cytotoxicity against human MCF7 cells assessed as growth inhibition at 10 uM after 48 hrs by SRB assay; format: functional; conditions: MCF7, 48 h, read-out: GI
# [9] = Cytotoxicity against human HOP62 cells assessed as growth level at 10 uM after 48 hrs by SRB assay; format: functional, HOP-62
# [10] = Cytotoxicity against human HCC2998 cells assessed as growth inhibition at 10 uM after 48 hrs by SRB assay; format: functional; conditions: HCC 2998, 48 h, read-out: GI
# NCI-H23 = experiment: Cytotoxicity against human NCI-H23 cells assessed as growth inhibition at 10 uM after 48 hrs by SRB assay; format: functional; conditions: NCI-H23, 48 h, read-out: GI
# CCRF-CEM [11] = experiment: Cytotoxicity against human CCRF-CEM cells assessed as growth level at 10 uM after 48 hrs by SRB assay; format: functional
# [12] = Cytotoxicity against human LOXIMVI cells assessed as growth level at 10 uM after 48 hrs by SRB assay; format: functional, LOX IMVI
# EKVX = experiment: Cytotoxicity against human EKVX cells assessed as growth level at 10 uM after 48 hrs by SRB assay; format: functional
# [13] = Cytotoxicity against human PC3 cells assessed as growth inhibition at 10 uM after 48 hrs by SRB assay; format: functional; conditions: PC-3, 48 h, read-out: GI
# [14] = Cytotoxicity against human TK10 cells assessed as growth level at 10 uM after 48 hrs by SRB assay; format: functional, TK-10
# [15] = Cytotoxicity against human UACC62 cells assessed as growth inhibition at 10 uM after 48 hrs by SRB assay; format: functional; conditions: UACC-62, 48 h, read-out: GI
# NCI-H226 = experiment: Cytotoxicity against human NCI-H226 cells assessed as growth inhibition at 10 uM after 48 hrs by SRB assay; format: functional; conditions: NCI-H226, 48 h, read-out: GI
# MDA-MB-468 [16] = experiment: Cytotoxicity against human MDA-MB-468 cells assessed as growth level at 10 uM after 48 hrs by SRB assay; format: functional
# CCRF-CEM [17] = experiment: Cytotoxicity against human CCRF-CEM cells assessed as growth inhibition at 10 uM after 48 hrs by SRB assay; format: functional; conditions: read-out: GI
# [18] = Cytotoxicity against human RPMI8226 cells assessed as growth inhibition at 10 uM after 48 hrs by SRB assay; format: functional; conditions: RPMI-8226, 48 h, read-out: GI
# SK-MEL-5 = experiment: Cytotoxicity against human SK-MEL-5 cells assessed as growth inhibition at 10 uM after 48 hrs by SRB assay; format: functional; conditions: SK-MEL-5, 48 h, read-out: GI
# NCI-H322M = experiment: Cytotoxicity against human NCI-H322M cells assessed as growth inhibition at 10 uM after 48 hrs by SRB assay; format: functional; conditions: read-out: GI
# MDA-MB-435 [19] = experiment: Cytotoxicity against human MDA-MB-435 cells assessed as growth level at 10 uM after 48 hrs by SRB assay; format: functional
# [20] = Cytotoxicity against human DU145 cells assessed as growth inhibition at 10 uM after 48 hrs by SRB assay; format: functional; conditions: DU-145, 48 h, read-out: GI
# [21] = Cytotoxicity against human IGROV1 cells assessed as growth inhibition at 10 uM after 48 hrs by SRB assay; format: functional; conditions: IGROV-1, 48 h, read-out: GI
# [22] = Cytotoxicity against human NCI-ADR-RES cells assessed as growth level at 10 uM after 48 hrs by SRB assay; format: functional
# Malme-3M = experiment: Cytotoxicity against human MALME-3M cells assessed as growth level at 10 uM after 48 hrs by SRB assay; format: functional
# K562 = experiment: Cytotoxicity against human K562 cells assessed as growth inhibition at 10 uM after 48 hrs by SRB assay; format: functional; conditions: K562, 48 h, read-out: GI
# [23] = Cytotoxicity against human RPMI8226 cells assessed as growth level at 10 uM after 48 hrs by SRB assay; format: functional, RPMI-8226
# MDA-MB-468 [24] = experiment: Cytotoxicity against human MDA-MB-468 cells assessed as growth inhibition at 10 uM after 48 hrs by SRB assay; format: functional; conditions: MDA-MB-468, 48 h, read-out: GI
# MDA-MB-435 [25] = experiment: Cytotoxicity against human MDA-MB-435 cells assessed as growth inhibition at 10 uM after 48 hrs by SRB assay; format: functional; conditions: MDA-MB-435, 48 h, read-out: GI
# [26] = Cytotoxicity against human MOLT4 cells assessed as growth level at 10 uM after 48 hrs by SRB assay; format: functional, MOLT-4
# [27] = Cytotoxicity against human SKOV3 cells assessed as growth inhibition at 10 uM after 48 hrs by SRB assay; format: functional; conditions: SK-OV-3, 48 h, read-out: GI
# NCI-H460 = experiment: Cytotoxicity against human NCI-H460 cells assessed as growth inhibition at 10 uM after 48 hrs by SRB assay; format: functional; conditions: NCI-H460, 48 h, read-out: GI
# A498 = experiment: Cytotoxicity against human A498 cells assessed as growth level at 10 uM after 48 hrs by SRB assay; format: functional
# [28] = Cytotoxicity against human HOP92 cells assessed as growth level at 10 uM after 48 hrs by SRB assay; format: functional, HOP-92
# [29] = Cytotoxicity against human SF268 cells assessed as growth level at 10 uM after 48 hrs by SRB assay; format: functional, SF-268
# [30] = Cytotoxicity against human SW620 cells assessed as growth level at 10 uM after 48 hrs by SRB assay; format: functional, SW-620
# ACHN = experiment: Cytotoxicity against human ACHN cells assessed as growth inhibition at 10 uM after 48 hrs by SRB assay; format: functional; conditions: read-out: GI
smiles,measurement,setting,value
C=C1CC[C@@H]2[C@](C)(COC(C)=O)[C@H](OC(C)=O)CC[C@@]2(C)[C@@H]1CC(NCCCCCCCC)C1=CCOC1=O (mixture of isomers),inhibition of growth at 10 µM,[1],41.1%
same,inhibition of growth at 10 µM,[2],55.4%
same,Activity,[3],35.89%
same,Activity,[4],47.66%
same,inhibition of growth at 10 µM,SR,63%
same,inhibition of growth at 10 µM,[5],27.6%
same,Activity,[6],52.34%
same,inhibition of growth at 10 µM,[7],29%
same,Activity,HT-29,70.47%
same,Activity,[8],83.08%
same,inhibition of growth at 10 µM,MCF7,31.2%
same,Activity,[9],91.97%
same,inhibition of growth at 10 µM,[10],8.56%
same,inhibition of growth at 10 µM,NCI-H23,29.2%
same,Activity,CCRF-CEM [11],47.26%
same,Activity,[12],53.89%
same,Activity,EKVX,75.77%
same,inhibition of growth at 10 µM,[13],66.4%
same,Activity,[14],82.68%
same,inhibition of growth at 10 µM,[15],52.3%
same,inhibition of growth at 10 µM,NCI-H226,34.2%
same,Activity,MDA-MB-468 [16],32.04%
same,inhibition of growth at 10 µM,CCRF-CEM [17],52.7%
same,inhibition of growth at 10 µM,[18],64%
same,inhibition of growth at 10 µM,SK-MEL-5,49.4%
same,inhibition of growth at 10 µM,NCI-H322M,1.99%
same,Activity,MDA-MB-435 [19],77.59%
same,inhibition of growth at 10 µM,[20],11.3%
same,inhibition of growth at 10 µM,[21],29.8%
same,Activity,[22],87.68%
same,Activity,Malme-3M,84.15%
same,inhibition of growth at 10 µM,K562,65.3%
same,Activity,[23],35.98%
same,inhibition of growth at 10 µM,MDA-MB-468 [24],68%
same,inhibition of growth at 10 µM,MDA-MB-435 [25],22.4%
same,Activity,[26],36.47%
same,inhibition of growth at 10 µM,[27],22.9%
same,inhibition of growth at 10 µM,NCI-H460,47.3%
same,Activity,A498,64.34%
same,Activity,[28],44.59%
same,Activity,[29],67.83%
same,Activity,[30],72.43%
same,inhibition of growth at 10 µM,ACHN,14%
